According to patent US20120214830A1, “BIOLOGICAL MARKERS PREDICTIVE OF ANTI-CANCER RESPONSE TO INSULIN-LIKE GROWTH FACTOR-1 RECEPTOR KINASE INHIBITORS IN HEPATOCELLULAR CARCINOMA” (OSI Pharmaceuticals, LLC, priority 2011, published 2012):

Experiments:
Assay in all cases: Cell Titer-Glo proliferation assay, 72 h
Assay type in all cases: cell-based
PLC/PRF/5 = conditions: Homo sapiens, PLC/PRF/5 cells
Description: (§1) Cell lines: Twenty-one HCC cell lines were purchased from either ATCC (HepG2, Hep3B, PLC/PRF/5, SK-Hepl, SNU-182, SNU-387, SNU-398, SNU-423, SNU-449, SNU-475) or Health Science Research Resources Bank (Japan) (HUH-1, HUH-6, HUH-7, HLE, HLF, JHH-1, JHH-2, JHH-4, JHH-5, JHH-6, JHH-7). All the cell lines were maintained in media as described by the vendors. For growth inhibition assays, cells were plated and allowed to proliferate for 24 hours. After 24 hours, cells had reached approximately 15% confluency, at which time serial dilutions of OSI-906 were added and the cells grown for a further 72 hours. Cell viability was assayed using the Cell Titer-Glo reagent (Promega Corp., Madison, Wis.). Proliferation Assay. Proliferation was assayed using Cell Titer Glo assays (Promega) and was determined 72 hours following dosing with OSI-906. The basis of the assay is a luminescent quantitation of ATP present in a cell culture plate well. In essence, the greater the number of viable cells in the well, the greater the level of ATP present. The assay utilizes a substrate that binds ATP to produce a luminescent signal, which can be read on a luminometer. Unless otherwise noted, the manufacturer's instructions were followed exactly. Briefly, on Day 1, cells were plated in […] of 10% serum-containing growth media at a density of 4000 cells/well in a white polystyrene 96 well assay plate. On day 2, cells were treated with 15 μl of 10× concentration of the IGF-1R inhibitor (e.g. OSI-906) or DMSO alone for a final well volume of 150 μl. After 72 h incubation with the inhibitor, the cells were assayed. Results were calculated as a fraction of the DMSO controlled cells.

HLE = conditions: Homo sapiens, HLE cells
Description: as §1

SK Hep-1 = conditions: Homo sapiens, SK-HEP1, SK Hep-1 cells
Description: as §1

SNU-387 = conditions: Homo sapiens, SNU-387 cells
Description: as §1

Huh-7 = conditions: Homo sapiens, Huh-7 cells
Description: as §1

SNU-398 = conditions: Homo sapiens, SNU-398 cells
Description: as §1

JHH-5 = conditions: Homo sapiens, JHH-5 cells
Description: as §1

Hep G2 = conditions: Homo sapiens, HepG2, Hep G2 cells
Description: as §1

SNU-423 = conditions: Homo sapiens, SNU-423 cells
Description: as §1

JHH-6 = conditions: Homo sapiens, JHH-6 cells
Description: as §1

Huh-6 = conditions: Homo sapiens, Huh-6 cells
Description: as §1

SNU-449 = conditions: Homo sapiens, SNU-449 cells
Description: as §1

SNU-182 = conditions: Homo sapiens, SNU-182 cells
Description: as §1

JHH-4 = conditions: Homo sapiens, JHH-4 cells
Description: as §1

SNU-475 = conditions: Homo sapiens, SNU-475 cells
Description: as §1

Huh-1 = conditions: Homo sapiens, Huh-1 cells
Description: as §1

For `C[C@]1(O)C[C@@H](c2nc(-c3ccc4ccc(-c5ccccc5)nc4c3)c3c(N)nccn32)C1` [OSI-906, cis-3-[8-amino-1-(2-phenyl-quinolin-7-yl)-imidazo[1,5-a]pyrazin-3-yl]-1-methyl-cyclobutanol], the inhibition at 5 µM (PLC/PRF/5; 5 μM OSI-906, 72 h) was under 40%, the EC50 (PLC/PRF/5; 72 h OSI-906) was over 10 µM and the inhibition at 5 µM (HLE; 5 μM OSI-906, 72 h) was under 40%. For the same compound, the EC50 (HLE; 72 h OSI-906) was over 10 µM, the inhibition at 5 µM (SK Hep-1; 5 μM OSI-906, 72 h) was under 40% and the EC50 (SK Hep-1; 72 h OSI-906) was over 10 µM. The inhibition at 5 µM (SNU-387; 5 μM OSI-906, 72 h) was under 40%, the EC50 (SNU-387; 72 h OSI-906) was over 10 µM and the inhibition at 5 µM (Huh-7; 5 μM OSI-906, 72 h) was 70%. The EC50 (Huh-7; 72 h OSI-906) was 0.37 µM, the inhibition at 5 µM (SNU-398; 5 μM OSI-906, 72 h) was under 40% and the EC50 (SNU-398; 72 h OSI-906) was over 10 µM. It also gave an inhibition at 5 µM (JHH-5; 5 μM OSI-906, 72 h) of 80%, an EC50 (JHH-5; 72 h OSI-906) of 0.19 µM and an inhibition at 5 µM (Hep G2; 5 μM OSI-906, 72 h) of 77%. The EC50 (Hep G2; 72 h OSI-906) was 0.22 µM, the inhibition at 5 µM (SNU-423; 5 μM OSI-906, 72 h) was under 40% and the EC50 (SNU-423; 72 h OSI-906) was over 10 µM. It also gave an inhibition at 5 µM (JHH-6; 5 μM OSI-906, 72 h) of under 40%, an EC50 (JHH-6; 72 h OSI-906) of over 10 µM and an inhibition at 5 µM (Huh-6; 5 μM OSI-906, 72 h) of 41%. The EC50 (Huh-6; 72 h OSI-906) was 0.25 µM, the inhibition at 5 µM (SNU-449; 5 μM OSI-906, 72 h) was under 40% and the EC50 (SNU-449; 72 h OSI-906) was over 10 µM. It also gave an inhibition at 5 µM (SNU-182; 5 μM OSI-906, 72 h) of under 40%, an EC50 (SNU-182; 72 h OSI-906) of over 10 µM and an inhibition at 5 µM (JHH-4; 5 μM OSI-906, 72 h) of under 40%. The EC50 (JHH-4; 72 h OSI-906) was over 10 µM, the inhibition at 5 µM (SNU-475; 5 μM OSI-906, 72 h) was under 40% and the EC50 (SNU-475; 72 h OSI-906) was over 10 µM. For the same compound, the inhibition at 5 µM (Huh-1; 5 μM OSI-906, 72 h) was 74% and the EC50 (Huh-1; 72 h OSI-906) was 0.18 µM.
